The results in this text go back to ChEMBL document CHEMBL1147236, “Semiplenamides A-G, fatty acid amides from a Papua New Guinea collection of the marine cyanobacterium Lyngbya semiplena” (J Nat Prod, 2003).

For the assay, the system named is RBL-2H3. As to conditions: Rattus norvegicus.

Description: Activity at AMT in rat RBL-2H3 cells

On to `CCCCC/C=C\C/C=C\C/C=C\C/C=C\CCCC(=O)NCCO`, for which the Km is 9.3 µM.

One may read the Km as the concentration of substrate that gives half-maximal velocity.
